Results published in PubChem BioAssay (NCI).
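How tested: cells in 96-well plates exposed to compound for 48 hours at five concentrations. TGI denotes the concentration required for complete inhibition of growth.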

Key:
Test in all cases: DTP human tumour cell line panel, 48 h
[1] = system: A549 NSCLC
[2] = system: COLO 205 colon
[3] = system: HCC-2998 colon
[4] = system: HCT-116 colon
[5] = system: HCT-15 colon
[6] = system: HOP-92 NSCLC
[7] = system: KM12 colon
[8] = system: LOX IMVI melanoma
[9] = system: NCI-H226 lung
[10] = system: NCI-H23 lung
[11] = system: NCI-H460 lung
[12] = system: NCI-H522 lung
[13] = system: SF-268 CNS
[14] = system: SF-295 CNS
[15] = system: SK-MEL-28 melanoma
[16] = system: SK-OV-3 ovarian
[17] = system: SNB-75 CNS
[18] = system: SW-620 colon
[19] = system: UACC-257 melanoma
[20] = system: UO-31 renal

Row | Structure (SMILES) | TGI [1] | TGI [2] | TGI [3] | TGI [4] | TGI [5] | TGI [6] | TGI [7] | TGI [8] | TGI [9] | TGI [10] | TGI [11] | TGI [12] | TGI [13] | TGI [14] | TGI [15] | TGI [16] | TGI [17] | TGI [18] | TGI [19] | TGI [20]
1 | Cc1[nH]c(=O)[nH]c(=O)c1/C=C/C(=O)NC(CO)CC(C)C (stereo not drawn) | > 375 µM | > 375 µM | > 375 µM | > 375 µM | > 375 µM | > 343 µM | > 375 µM | > 375 µM | > 375 µM | > 375 µM | > 187 µM | > 375 µM | > 375 µM | > 375 µM | > 375 µM | > 375 µM | > 375 µM | > 375 µM | > 375 µM | > 375 µM
2 | CCOC(=O)/C=C/CC(C)(C)COC(C)=O | > 10 µM | – | > 10 µM | > 10 µM | > 10 µM | – | > 10 µM | > 10 µM | > 10 µM | > 10 µM | > 10 µM | > 10 µM | > 10 µM | > 10 µM | > 10 µM | > 10 µM | > 10 µM | > 10 µM | > 10 µM | > 10 µM
3 | CC(C)=CCc1c(O)cc(O)c2c1OC(c1ccc(O)cc1)C(O)C2=O (stereo not drawn) | 80.8 µM | > 100 µM | 56.3 µM | > 100 µM | 55.7 µM | 39.7 µM | 58.9 µM | 35.7 µM | 56.7 µM | 45.8 µM | 77.3 µM | 42 µM | > 100 µM | 67 µM | 50.7 µM | > 100 µM | 99 µM | > 100 µM | > 100 µM | 90.4 µM
4 | CCOC(=O)C1(CO)CSCCSC1 | > 100 µM | > 100 µM | > 100 µM | > 100 µM | > 100 µM | > 100 µM | > 100 µM | > 100 µM | > 100 µM | > 100 µM | > 100 µM | > 100 µM | > 100 µM | > 100 µM | > 100 µM | > 100 µM | > 100 µM | > 100 µM | > 100 µM | > 100 µM
5 | CCC(C)C(=O)OC1C(=O)OC2CC3C(C)=CC(=O)C(O)C3(C)C3C4(O)OCC23C1C(C)C4O (stereo not drawn) | 2.38 µM | 0.757 µM | 0.227 µM | 1.4 µM | 0.944 µM | 0.205 µM | 0.133 µM | 0.0154 µM | < 0.031 µM | 0.0431 µM | 0.659 µM | < 0.0212 µM | 0.124 µM | 0.126 µM | 0.106 µM | 4.11 µM | 0.113 µM | 0.694 µM | 1.34 µM | 0.278 µM
6 | CC(=O)OC1C=C(C=O)C(O)(C=O)C2(C)CCCC(C)(C)C12 (stereo not drawn) | 13.6 µM | 2.75 µM | 5.75 µM | 3.92 µM | 1.7 µM | 2.98 µM | 5.14 µM | 2.93 µM | 4.62 µM | 4.92 µM | 4.21 µM | 1.16 µM | 5.35 µM | 6.31 µM | 3.42 µM | 8.68 µM | 5.82 µM | 0.953 µM | 5.68 µM | 5.66 µM
